Experimental findings from ChEMBL document CHEMBL1138460, “Synthesis of a new opioid ligand having the oxabicyclo[3.2.1]octane skeleton using a new rearrangement reaction” (Bioorg Med Chem Lett, 2009) are described below.

Each structure is given as a SMILES string.

Assay [1] in a line: Displacement of [3H]NTI from delta opioid receptor in guinea pig forebrain. Further details: species or system Cavia porcellus. Background: In a radioligand displacement assay an active substance lowers the binding of a labelled ligand.
Assay [2] has as its target Opioid receptor (mu and kappa) (Cavia porcellus) (UniProt P41144+P97266). In words: Ratio of Ki for guinea pig mu opioid receptor to Ki for guinea pig kappa opioid receptor.
The target of assay [3] is Kappa-type opioid receptor (Cavia porcellus, UniProt P41144). In words: Displacement of [3H]U69593 from kappa opioid receptor in guinea pig cerebellum. The format is tissue-based.
The target of another assay is Mu-type opioid receptor (Cavia porcellus, UniProt P97266). The assay is described as follows: Displacement of [3H]DAMGO from mu opioid receptor in guinea pig forebrain.
Mu-type opioid receptor, sequence (P97266 whole entry): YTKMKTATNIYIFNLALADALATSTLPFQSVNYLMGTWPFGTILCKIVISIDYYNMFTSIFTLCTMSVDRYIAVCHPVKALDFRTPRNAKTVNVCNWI

Opioid receptor (mu and kappa) (Cavia porcellus), sequence (P41144 whole entry, looked up): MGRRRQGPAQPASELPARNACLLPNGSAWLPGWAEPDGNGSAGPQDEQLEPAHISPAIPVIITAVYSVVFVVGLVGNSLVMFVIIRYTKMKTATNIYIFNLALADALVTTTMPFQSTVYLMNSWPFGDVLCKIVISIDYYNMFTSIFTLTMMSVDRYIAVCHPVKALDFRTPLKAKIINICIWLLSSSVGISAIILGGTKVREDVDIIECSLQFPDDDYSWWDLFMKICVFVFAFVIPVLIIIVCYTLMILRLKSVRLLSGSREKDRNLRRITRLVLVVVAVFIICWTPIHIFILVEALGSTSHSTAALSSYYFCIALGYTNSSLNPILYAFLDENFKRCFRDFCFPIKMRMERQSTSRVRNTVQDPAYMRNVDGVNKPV
Opioid receptor (mu and kappa) (Cavia porcellus), sequence (P97266 whole entry, looked up): as the sequence (P97266 whole entry) above
Kappa-type opioid receptor, sequence (P41144 whole entry): as the sequence (P41144 whole entry, looked up) above

Broadly, the Ki is a dissociation constant, usually derived from enzyme kinetics or from competition with a known ligand. The low end stands for tighter binding, the high end for weaker binding. On to `O=C1CC[C@@]2(O)[C@H]3Cc4ccc(O)c5c4[C@@]2(CCN3CC2CC2)[C@H]1O5` [NALTREXONE], for which the Ki in assay [1] worked out at 20.7 nM.
For `OC[C@]12CC[C@@]3(O1)[C@H]1Cc4ccc(O)cc4[C@@]3(CCN1CC1CC1)C2`, in assay [2], the Ratio Ki was 1.42. The values for the Ki (in assay [3]; in assay [1]; on Mu-type opioid receptor) were 0.102 nM, 3.5 nM and 0.145 nM, respectively.
With `O=C1C[C@]23CCN(CC4CC4)[C@H](Cc4ccc(O)cc42)[C@]32CC[C@H]1O2`, the Ratio Ki in assay [2] came to 1.7. Moreover, the Ki stood at 0.233 nM in assay [3], 6.84 nM in assay [1] and 0.397 nM at Mu-type opioid receptor.
